What was measured:
7D4 mAb = test: ic-ELISA optimal combination of coated antigen and antibody (Table S3); format: binding, mouse; details: prometryn 1000 ng/mL
Experimental: (§1) The ic-ELISA method was used to screen the best-performing fusion mouse sera. They were used to establish the standard curve of antibodies by detecting the supernatant of positive cells. The buffer required for ic-ELISA was the same as previously reported. The specific steps of the operation are as follows: (1) The coated antigen was added to the microplate by diluting it with the required coating solutions (CBS, pH 9.6, 0.05 mol/L). Each well contained 100 µL, which was incubated at 37 °C for three h before being washed three times with washing buffer (PBST, PBS containing 0.1% Tween-20). (2) With sample dilution buffer (PBSTG, PBST containing 0.1% gelatin), the standard prometryn sample and the antiserum/antibody from mice were diluted to the required concentration. The microplate was incubated for 30 min at 37 °C with 50 µL of diluted antiserum or antibody and standard samples of various concentrations. PBST was used three times to wash the dishes. (3) Then, 100 µL of PBSTG-diluent IgG HRP (labeled goat anti-mouse IgG with HRP) was added to each well. After 30 min at 37 °C, the plate was cleaned three times with PBST. (4) Each well was incubated for 15 min in the dark at 25 °C with 100 µL of TMB color developing solution. To stop the reaction, 50 µL of the hydrochloric acid solution was added to each well. The absorbance at OD450 nm was measured with a TECAN Infinite M200 PRO microplate reader from Männedorf, Switzerland.
The ic-ELISA method was used to determine the ideal antibody and antigen mix. The coating antigen and antibody concentration used in the experiment was 1 mg/mL. The dilution multiples of the coating were 1 × 10^3, 2 × 10^3, 4 × 10^3, and 8 × 10^3. The prometryn standard was 1000 ng/mL. The best concentration combination of antigen and antibody was selected to establish the standard curve of the antibody. Prometryn standards were diluted to 1000, 500, 250, 125, 62.5, 31.25, 15.625, 7.8125, 3.90625, and 0 ng/mL, with PBSTG for subsequent ic-ELISA experiments. The standard curve was determined by ic-ELISA. […] Each measured OD value in the curve is the average of three independent repeats. The 7D4 mAb’s inhibition rate was well linearly correlated with the prometryn concentration. […] The 7D4 mAb type was identified as IgG1 using a mouse antibody isotyping kit from Sigma®, St. Louis, MO, USA.

mouse antiserum = test: ic-ELISA serum titer and inhibition rate of mice for the fusion experiment (Table S2); format: binding; details: prometryn 1000 ng/mL
Experimental: The Institute of Quality Standards and Testing Technology for Agro-Products’ Experimental Animal Welfare and Ethical Committee (IQSTAP-2021-05) approved the use of animals in experiments. The buffer solution (0.01 M PBS, pH = 7.4) was used to dilute the immunogen (2 mg/mL) to 1 mg/mL. After that, Freund’s adjuvant was added to an identical volume of 0.1 mL in a sterile glass vial. The mixture was placed on a magnetic stirrer and stirred and mixed rapidly in an ice bath to fully emulsify. Six 7-week-old female BALB/c mice were selected for immunization. At the beginning of the third immunization, 3–5 days after each immunization, blood was taken from the orbit, incubated at 37 °C for 0.5 h and 4 °C for 2 h, and centrifuged at 1000 r/min for 10 min. Serum was collected, and the serum titer was determined. The immune strategy of mice was the same as that previously reported. Freund’s […] vaccination, and for the subsequent booster vaccination, Freund’s incomplete adjuvant was utilized. Freund’s adjuvant and immunogen during immunization should be 1:1 and thoroughly mixed until dripping into the water to prevent diffusion. The interval of booster immunization was 2 weeks, and the immune dose was 0.1 mg. Three days before fusion, the mice with the best performance were immunized with a dose of 0.05 mg. The mice were intraperitoneally injected without adjuvant.
as §1
Ic-ELISA was used to measure the inhibition rate and serum titer of six immunized mice. Three days before cell fusion, Balb/c mice with the highest performance were selected and immunized. SP2/0 myeloma cells and mouse spleen cells were combined for fusion. After fusion, the supernatant of hybridoma cells was determined by indirect competitive enzyme-linked immunosorbent assay, the positive wells were screened, and the hybridoma cells were cloned to obtain hybridoma cell lines that can stably secrete monoclonal antibodies against prometryn. After the positive cell lines were expanded and cultured, mice treated with paraffin 7 days earlier were injected intraperitoneally. Ascites were collected after abdominal swelling and centrifuged at 4 °C at 1000 rpm, and the potency and inhibition rate of ascites were determined and frozen at −20 °C for purification. The 7D4 mAb against prometryn was obtained by purifying the […] with the octanoic acid-saturated ammonium sulfate method. […]

CSc1nc(NC(C)C)nc(NC(C)C)n1 [Prometryn, 2-methylthio-4,6-di(isopropylamino)-1,3,5-triazobenzene]
IR (inhibition rate) (7D4 mAb; dilution of immunogen 1×103, dilution of serum 1.6×104): 94%
IR (inhibition rate) (7D4 mAb; dilution of immunogen 1×103, dilution of serum 2×103): 97%
IR (inhibition rate) (7D4 mAb; dilution of immunogen 1×103, dilution of serum 3.2×104): 92%
IR (inhibition rate) (7D4 mAb; dilution of immunogen 1×103, dilution of serum 4×103): 98%
IR (inhibition rate) (7D4 mAb; dilution of immunogen 1×103, dilution of serum 8×103): 97%
IR (inhibition rate) (7D4 mAb; dilution of immunogen 2×103, dilution of serum 1.6×104): 92%
IR (inhibition rate) (7D4 mAb; dilution of immunogen 2×103, dilution of serum 2×103): 98%
IR (inhibition rate) (7D4 mAb; dilution of immunogen 2×103, dilution of serum 3.2×104): 85%
IR (inhibition rate) (7D4 mAb; dilution of immunogen 2×103, dilution of serum 4×103): 97%
IR (inhibition rate) (7D4 mAb; dilution of immunogen 2×103, dilution of serum 8×103): 96%
IR (inhibition rate) (7D4 mAb; dilution of immunogen 4×103, dilution of serum 1.6×104): 81%
IR (inhibition rate) (7D4 mAb; dilution of immunogen 4×103, dilution of serum 2×103): 97%
IR (inhibition rate) (7D4 mAb; dilution of immunogen 4×103, dilution of serum 3.2×104): 71%
IR (inhibition rate) (7D4 mAb; dilution of immunogen 4×103, dilution of serum 4×103): 95%
IR (inhibition rate) (7D4 mAb; dilution of immunogen 4×103, dilution of serum 8×103): 90%
IR (inhibition rate) (7D4 mAb; dilution of immunogen 8×103, dilution of serum 1.6×104): 67%
IR (inhibition rate) (7D4 mAb; dilution of immunogen 8×103, dilution of serum 2×103): 93%
IR (inhibition rate) (7D4 mAb; dilution of immunogen 8×103, dilution of serum 3.2×104): 55%
IR (inhibition rate) (7D4 mAb; dilution of immunogen 8×103, dilution of serum 4×103): 90%
IR (inhibition rate) (7D4 mAb; dilution of immunogen 8×103, dilution of serum 8×103): 82%
IR (inhibition rate) (mouse antiserum; dilution of immunogen 1×103, serum dilution 1.28×105): -7.66%
IR (inhibition rate) (mouse antiserum; dilution of immunogen 1×103, serum dilution 1.6×104): 65.86%
IR (inhibition rate) (mouse antiserum; dilution of immunogen 1×103, serum dilution 2×103): 85.70%
IR (inhibition rate) (mouse antiserum; dilution of immunogen 1×103, serum dilution 2.56×105): 75.15%
IR (inhibition rate) (mouse antiserum; dilution of immunogen 1×103, serum dilution 3.2×104): 46.44%
IR (inhibition rate) (mouse antiserum; dilution of immunogen 1×103, serum dilution 4×103): 88.04%
IR (inhibition rate) (mouse antiserum; dilution of immunogen 1×103, serum dilution 6.4×104): 35.52%
IR (inhibition rate) (mouse antiserum; dilution of immunogen 1×103, serum dilution 8×103): 81.46%
IR (inhibition rate) (mouse antiserum; dilution of immunogen 1.6×104, serum dilution 1.28×105): -52.80%
IR (inhibition rate) (mouse antiserum; dilution of immunogen 1.6×104, serum dilution 1.6×104): 58.64%
IR (inhibition rate) (mouse antiserum; dilution of immunogen 1.6×104, serum dilution 2×103): 85.05%
IR (inhibition rate) (mouse antiserum; dilution of immunogen 1.6×104, serum dilution 2.56×105): 71.56%
IR (inhibition rate) (mouse antiserum; dilution of immunogen 1.6×104, serum dilution 3.2×104): 28.55%
IR (inhibition rate) (mouse antiserum; dilution of immunogen 1.6×104, serum dilution 4×103): 82.62%
IR (inhibition rate) (mouse antiserum; dilution of immunogen 1.6×104, serum dilution 6.4×104): 11.18%
IR (inhibition rate) (mouse antiserum; dilution of immunogen 1.6×104, serum dilution 8×103): 81.51%
IR (inhibition rate) (mouse antiserum; dilution of immunogen 2×103, serum dilution 1.28×105): 14.21%
IR (inhibition rate) (mouse antiserum; dilution of immunogen 2×103, serum dilution 1.6×104): 61.99%
IR (inhibition rate) (mouse antiserum; dilution of immunogen 2×103, serum dilution 2×103): 85.14%
IR (inhibition rate) (mouse antiserum; dilution of immunogen 2×103, serum dilution 2.56×105): 74.90%
IR (inhibition rate) (mouse antiserum; dilution of immunogen 2×103, serum dilution 3.2×104): 51.64%
IR (inhibition rate) (mouse antiserum; dilution of immunogen 2×103, serum dilution 4×103): 86.95%
IR (inhibition rate) (mouse antiserum; dilution of immunogen 2×103, serum dilution 6.4×104): 10.11%
IR (inhibition rate) (mouse antiserum; dilution of immunogen 2×103, serum dilution 8×103): 79.58%
IR (inhibition rate) (mouse antiserum; dilution of immunogen 3.2×104, serum dilution 1.28×105): 17.80%
IR (inhibition rate) (mouse antiserum; dilution of immunogen 3.2×104, serum dilution 1.6×104): 74.44%
IR (inhibition rate) (mouse antiserum; dilution of immunogen 3.2×104, serum dilution 2×103): 84.75%
IR (inhibition rate) (mouse antiserum; dilution of immunogen 3.2×104, serum dilution 2.56×105): 72.21%
IR (inhibition rate) (mouse antiserum; dilution of immunogen 3.2×104, serum dilution 3.2×104): 51.77%
IR (inhibition rate) (mouse antiserum; dilution of immunogen 3.2×104, serum dilution 4×103): 68.48%
IR (inhibition rate) (mouse antiserum; dilution of immunogen 3.2×104, serum dilution 6.4×104): 28.68%
IR (inhibition rate) (mouse antiserum; dilution of immunogen 3.2×104, serum dilution 8×103): 80.75%
IR (inhibition rate) (mouse antiserum; dilution of immunogen 4×103, serum dilution 1.28×105): 7.62%
IR (inhibition rate) (mouse antiserum; dilution of immunogen 4×103, serum dilution 1.6×104): 63.91%
IR (inhibition rate) (mouse antiserum; dilution of immunogen 4×103, serum dilution 2×103): 86.78%
IR (inhibition rate) (mouse antiserum; dilution of immunogen 4×103, serum dilution 2.56×105): 78.43%
IR (inhibition rate) (mouse antiserum; dilution of immunogen 4×103, serum dilution 3.2×104): 47.70%
IR (inhibition rate) (mouse antiserum; dilution of immunogen 4×103, serum dilution 4×103): 87.39%
IR (inhibition rate) (mouse antiserum; dilution of immunogen 4×103, serum dilution 6.4×104): 24.90%
IR (inhibition rate) (mouse antiserum; dilution of immunogen 4×103, serum dilution 8×103): 81.74%
IR (inhibition rate) (mouse antiserum; dilution of immunogen 8×103, serum dilution 1.28×105): 7.17%
IR (inhibition rate) (mouse antiserum; dilution of immunogen 8×103, serum dilution 1.6×104): 58.20%
IR (inhibition rate) (mouse antiserum; dilution of immunogen 8×103, serum dilution 2×103): 87.26%
IR (inhibition rate) (mouse antiserum; dilution of immunogen 8×103, serum dilution 2.56×105): 59.68%
IR (inhibition rate) (mouse antiserum; dilution of immunogen 8×103, serum dilution 3.2×104): 15.68%
IR (inhibition rate) (mouse antiserum; dilution of immunogen 8×103, serum dilution 4×103): 84.15%
IR (inhibition rate) (mouse antiserum; dilution of immunogen 8×103, serum dilution 6.4×104): 7.82%
IR (inhibition rate) (mouse antiserum; dilution of immunogen 8×103, serum dilution 8×103): 76.22%
